Experimental data reported in US20110039721A1, “METHOD FOR PREDICTION ABOUT CARCINOGENICITY OF SUBSTANCE IN RODENT” (Chemicals Evaluation and Research Institute, priority 2007, published 2011).

Test system: mRNA expressed from the genes (A) to (D) in rat liver
Assay: Behavior of genes (mRNA expression level, oligo-DNA microarray) in rat liver after 28-day oral administration
Assay type: in vivo
Method: A test solution was prepared by dissolving each of the carcinogens and the non-carcinogens shown in Tables 2 to 6 in the corresponding solvent shown in Tables 2 to 6. Each of the thus prepared test solutions and the solvents used for the preparation was administered by oral gavage to rats in each group. As the rats, male rats (F344 SPF rats) at 5 weeks of age obtained from Charles River Laboratories Japan, Inc. were used. The animals were divided into groups, each containing four individuals. The volume of the solvent administered to the vehicle control group was set to the same volume as that of the test solution administered to the carcinogen administration group or the non-carcinogen administration group. The administration of the test solution or the solvent was performed once daily for 28 days. Apiece was excised from the liver of each of the rats after a lapse of 28 days from the initiation of the administration, and the total RNA was extracted and purified.
The expression level of mRNA was compared between each of the chemical substance administration groups and the corresponding vehicle control group, and genes that satisfy the requirements described in (A) to (D) were selected, respectively.
The case where the expression level of mRNA in the carcinogen administration group or the non-carcinogen administration group is 1.5 times or more or 1/1.5 or less of the expression level of the corresponding mRNA expressed in the control group was determined to be significant. In this connection, the determination as to whether or not the change is significant was performed by taking into consideration the direction of increase or decrease in the expression level. In the case where the direction of increase or decrease is different as compared with the case where another carcinogen was administered, the change was determined to be not significant.

[1] = (C), Unigene Rn.120914, defined direction +, rat liver, oral once daily 28 days
[2] = gene group (A), Unigene No. Rn.167075
[3] = gene group (C), Unigene No. Rn.120914

## COC(N)=O [TS029, Methyl carbamate]
(A), Unigene Rn.144554, defined direction +, rat liver, oral once daily 28 days
  Behavior of gene caused by administration of chemical substance, Gene No. 4846: +
(A), Unigene Rn.167075, defined direction +, rat liver, oral once daily 28 days, significant = 1.5 times or more or 1/1.5 or less of control
  Behavior of gene caused by administration of chemical substance, Gene No. 4218: +
(A), Unigene Rn.167075, defined direction −, rat liver, oral once daily 28 days
  Behavior of gene caused by administration of chemical substance, Gene No. 2026: +
(A), Unigene Rn.5834, defined direction +, rat liver, oral once daily 28 days
  Behavior of gene caused by administration of chemical substance, Gene No. 6182: +
(A), Unigene Rn.9836, defined direction +, rat liver, oral once daily 28 days
  Behavior of gene caused by administration of chemical substance, Gene No. 5600: +
(B), Unigene Rn.1430, defined direction −, rat liver, oral once daily 28 days
  Behavior of gene caused by administration of chemical substance, Gene No. 1494: +
(B), Unigene Rn.19329, defined direction +, rat liver, oral once daily 28 days
  Behavior of gene caused by administration of chemical substance, Gene No. 2045: −
(B), Unigene Rn.21240, defined direction +, rat liver, oral once daily 28 days
  Behavior of gene caused by administration of chemical substance, Gene No. 2203: −
(C), Unigene Rn.106184, defined direction +, rat liver, oral once daily 28 days
  Behavior of gene caused by administration of chemical substance, Gene No. 533: +
(C), Unigene Rn.108075, defined direction −, rat liver, oral once daily 28 days
  Behavior of gene caused by administration of chemical substance, Gene No. 725: −
(C), Unigene Rn.11766, defined direction +, rat liver, oral once daily 28 days
  Behavior of gene caused by administration of chemical substance, Gene No. 1163: −
(C), Unigene Rn.118529, defined direction −, rat liver, oral once daily 28 days
  Behavior of gene caused by administration of chemical substance, Gene No. 4973: −
(C), Unigene Rn.119024, defined direction −, rat liver, oral once daily 28 days
  Behavior of gene caused by administration of chemical substance, Gene No. 4095: −
[1]
  Behavior of gene caused by administration of chemical substance, Gene No. 1334: −
  Behavior of gene caused by administration of chemical substance, Gene No. 6620: −
(C), Unigene Rn.123063, defined direction −, rat liver, oral once daily 28 days
  Behavior of gene caused by administration of chemical substance, Gene No. 6303: +
(C), Unigene Rn.143213, defined direction −, rat liver, oral once daily 28 days
  Behavior of gene caused by administration of chemical substance, Gene No. 5878: −
(C), Unigene Rn.144946, defined direction −, rat liver, oral once daily 28 days
  Behavior of gene caused by administration of chemical substance, Gene No. 1131: −
(C), Unigene Rn.14744, defined direction −, rat liver, oral once daily 28 days
  Behavior of gene caused by administration of chemical substance, Gene No. 1562: +
(C), Unigene Rn.1647, defined direction −, rat liver, oral once daily 28 days
  Behavior of gene caused by administration of chemical substance, Gene No. 1741: +
(C), Unigene Rn.164817, defined direction +, rat liver, oral once daily 28 days
  Behavior of gene caused by administration of chemical substance, Gene No. 893: −
(C), Unigene Rn.167685, defined direction −, rat liver, oral once daily 28 days
  Behavior of gene caused by administration of chemical substance, Gene No. 6026: −
(C), Unigene Rn.185941, defined direction −, rat liver, oral once daily 28 days
  Behavior of gene caused by administration of chemical substance, Gene No. 154: +
(C), Unigene Rn.18728, defined direction −, rat liver, oral once daily 28 days
  Behavior of gene caused by administration of chemical substance, Gene No. 1993: +
(C), Unigene Rn.201760, defined direction +, rat liver, oral once daily 28 days
  Behavior of gene caused by administration of chemical substance, Gene No. 813: −
(C), Unigene Rn.23969, defined direction +, rat liver, oral once daily 28 days
  Behavior of gene caused by administration of chemical substance, Gene No. 2494: −
(C), Unigene Rn.24561, defined direction −, rat liver, oral once daily 28 days
  Behavior of gene caused by administration of chemical substance, Gene No. 2546: −
(C), Unigene Rn.43232, defined direction −, rat liver, oral once daily 28 days
  Behavior of gene caused by administration of chemical substance, Gene No. 3776: +
(C), Unigene Rn.4620, defined direction +, rat liver, oral once daily 28 days
  Behavior of gene caused by administration of chemical substance, Gene No. 3929: −
(C), Unigene Rn.9757, defined direction +, rat liver, oral once daily 28 days
  Behavior of gene caused by administration of chemical substance, Gene No. 1119: −
(C), Unigene Rn.9779, defined direction +, rat liver, oral once daily 28 days
  Behavior of gene caused by administration of chemical substance, Gene No. 6742: −
(C), Unigene Rn.9862, defined direction −, rat liver, oral once daily 28 days
  Behavior of gene caused by administration of chemical substance, Gene No. 5634: −
(D), Unigene Rn.9939, defined direction −, rat liver, oral once daily 28 days
  Behavior of gene caused by administration of chemical substance, Gene No. 5726: −

## CC(=O)Nc1ccc(O)cc1 [TS031, Acetaminophen]
Gene group (A), Unigene No. Rn.144554
  Behavior of gene caused by administration of chemical substance, Gene No. 4846: −
[2]
  Behavior of gene caused by administration of chemical substance, Gene No. 2026: +
  Behavior of gene caused by administration of chemical substance, Gene No. 4218: −
Gene group (A), Unigene No. Rn.5834
  Behavior of gene caused by administration of chemical substance, Gene No. 6182: −
Gene group (A), Unigene No. Rn.9836
  Behavior of gene caused by administration of chemical substance, Gene No. 5600: −
Gene group (B), Unigene No. Rn.1430
  Behavior of gene caused by administration of chemical substance, Gene No. 1494: +
Gene group (B), Unigene No. Rn.19329
  Behavior of gene caused by administration of chemical substance, Gene No. 2045: −
Gene group (B), Unigene No. Rn.21240
  Behavior of gene caused by administration of chemical substance, Gene No. 2203: −
Gene group (C), Unigene No. Rn.106184
  Behavior of gene caused by administration of chemical substance, Gene No. 533: +
Gene group (C), Unigene No. Rn.108075
  Behavior of gene caused by administration of chemical substance, Gene No. 725: −
Gene group (C), Unigene No. Rn.11766
  Behavior of gene caused by administration of chemical substance, Gene No. 1163: −
Gene group (C), Unigene No. Rn.118529
  Behavior of gene caused by administration of chemical substance, Gene No. 4973: −
Gene group (C), Unigene No. Rn.119024
  Behavior of gene caused by administration of chemical substance, Gene No. 4095: −
[3]
  Behavior of gene caused by administration of chemical substance, Gene No. 1334: −
  Behavior of gene caused by administration of chemical substance, Gene No. 6620: −
Gene group (C), Unigene No. Rn.123063
  Behavior of gene caused by administration of chemical substance, Gene No. 6303: −
Gene group (C), Unigene No. Rn.143213
  Behavior of gene caused by administration of chemical substance, Gene No. 5878: −
Gene group (C), Unigene No. Rn.144946
  Behavior of gene caused by administration of chemical substance, Gene No. 1131: −
Gene group (C), Unigene No. Rn.14744
  Behavior of gene caused by administration of chemical substance, Gene No. 1562: −
Gene group (C), Unigene No. Rn.1647
  Behavior of gene caused by administration of chemical substance, Gene No. 1741: +
Gene group (C), Unigene No. Rn.164817
  Behavior of gene caused by administration of chemical substance, Gene No. 893: −
Gene group (C), Unigene No. Rn.167685
  Behavior of gene caused by administration of chemical substance, Gene No. 6026: −
Gene group (C), Unigene No. Rn.185941
  Behavior of gene caused by administration of chemical substance, Gene No. 154: −
Gene group (C), Unigene No. Rn.18728
  Behavior of gene caused by administration of chemical substance, Gene No. 1993: −
Gene group (C), Unigene No. Rn.201760
  Behavior of gene caused by administration of chemical substance, Gene No. 813: −
Gene group (C), Unigene No. Rn.23969
  Behavior of gene caused by administration of chemical substance, Gene No. 2494: −
Gene group (C), Unigene No. Rn.24561
  Behavior of gene caused by administration of chemical substance, Gene No. 2546: +
Gene group (C), Unigene No. Rn.43232
  Behavior of gene caused by administration of chemical substance, Gene No. 3776: −
Gene group (C), Unigene No. Rn.4620
  Behavior of gene caused by administration of chemical substance, Gene No. 3929: −
Gene group (C), Unigene No. Rn.9757
  Behavior of gene caused by administration of chemical substance, Gene No. 1119: −
Gene group (C), Unigene No. Rn.9779
  Behavior of gene caused by administration of chemical substance, Gene No. 6742: +
Gene group (C), Unigene No. Rn.9862
  Behavior of gene caused by administration of chemical substance, Gene No. 5634: −
Gene group (D), Unigene No. Rn.9939
  Behavior of gene caused by administration of chemical substance, Gene No. 5726: −
